From patent publication US6585954B1, “Method for searching steroid sulfatase inhibitors” (Kyowa Hakko Kogyo Co., Ltd., priority 1998, dated 2003)

Legend:
[1] = tested on: transformed cell line carrying the introduced human steroid sulfatase gene (STS); assay: Tumor formation after transplantation of cells carrying an introduced steroid sulfatase gene (Example 4); assay type: in vivo, BALB/c-nu/nu mice; settings: 0.1 mg/kg estrone-3-sulfate subcutaneously every day, after tumor growth stopped following estrogen preparation
Description: First, cells carrying the introduced steroid sulfatase gene are transplanted into an animal such as a mouse for fixation to form a tumor. That is, tumor cells carrying the introduced steroid sulfatase gene are transplanted subcutaneously into an immunodeficient mouse, for example, a BALB/c-nu/nu (a nude mouse) or an SCID mouse in an amount of 1-5×10^6 cells to form a tumor. At the time of transplantation, a crude extract of basement membrane containing adhesion factor (e.g., matrigel-basement membrane, Becton & Dickinson) may be added in order to improve the fixation rate [Br. J. Cancer, 67, 953 (1993)]. In the case of estrogen-dependent breast cancer, the fixation rate is improved and the tumor growth after the fixation is promoted by administering an estrogen compound.
The cells were suspended at a concentration of 2×10^8 cells/ml and the suspension was mixed with an equal volume of matrigel-basement membrane (Becton & Dickinson). The resulting mixture was subcutaneously transplanted into 7- to 8-weeks-old female BALB/c-nu/nu mice, (nude mice, each group consisting of 5 mice) in an amount of 0.1 ml (1×10^7 cells). On the day of transplantation and 2 weeks later, an estrogen preparation (EP depo, Teikoku Zoki) was intramuscularly administered. […]

[2] = tested on: tumor of transformed cell line carrying the introduced human steroid sulfatase gene (STS); assay: Effect of a steroid sulfatase inhibitor on estrone-3-sulfate-dependent tumor growth in nude mice (Example 5); assay type: in vivo, BALB/c-nu/nu mice; settings: 0.1 mg/kg estrone-3-sulfate alone, subcutaneously for 22 days; by the 38th day
Description: The volume of a tumor can be calculated from the shorter diameter and the longer diameter of the tumor measured with slide calipers according to the following approximation formula.
Tumor volume=(longer diameter)×(shorter diameter)^2÷2
Animals in which the tumor growth was confirmed after administration of estrone-3-sulfate are selected, and a test compound is administered thereto. Then, the tumor volume is measured to estimate the steroid sulfatase-inhibiting activity of the test compound. The test compound may be administered by any of intravenous, subcutaneous, intraperitoneal and oral routes. The steroid sulfatase-inhibiting activity of the compound can be estimated by measuring the tumor volume at intervals of 3-4 days after the administration, and then comparing the tumor growth between the group to which only estrone-3-sulfate was administered and the group to which estrone-3-sulfate and the test compound were administered.
The cells were suspended at a concentration of 2×10^8 cells/ml and the suspension was mixed with an equal volume of matrigel-basement membrane (Becton & Dickinson). The resulting mixture was subcutaneously transplanted into 7- to 8-weeks-old female BALB/c-nu/nu mice, (nude mice, each group consisting of 5 mice) in an amount of 0.1 ml (1×10^7 cells). […]

In the case of C[C@]12CC[C@@H]3c4ccc(OS(=O)(=O)O)cc4CC[C@H]3[C@@H]1CCC2=O [estrone-3-sulfate], the “tumor growth after administration” value [1] is reported as “the tumor grew in all mice and there was no reduction of tumor” and the “tumor volume relative to the initial volume” value [2] is reported as 1.4 times the initial volume.
